Measured values: ChEMBL document CHEMBL1649270, “ST-246 inhibits in vivo poxvirus dissemination, virus shedding, and systemic disease manifestation” (2009)
The source made the active and inactive calls. The rule behind the calls is not given here.

What was measured:
Vaccinia virus WR [1] = test: Antiviral activity against Vaccinia virus WR ATCC VR-1354 infected through intravenous route in BALB/c mouse assessed as reduction of viral load in blood at 100 mg/kg, po qd measured after 14 days postinfection by RT-PCR analysis relative to control; format: functional, organism-based; set-up: dose 100 mg/kg
Vaccinia virus WR [2] = test: Antiviral activity against Vaccinia virus WR ATCC VR-1354 infected through subcutaneous route in BALB/c mouse assessed as reduction of viral load in lung at 100 mg/kg, po qd measured after 3 to 5 days postinfection by RT-PCR analysis relative to control; format: functional
Vaccinia virus WR [3] = test: Antiviral activity against Vaccinia virus WR ATCC VR-1354 infected through intraperitoneal route in BALB/c mouse assessed as reduction of viral load in spleen at 100 mg/kg, po qd measured after 3 days postinfection by RT-PCR analysis relative to control; format: functional, organism-based; set-up: dose 100 mg/kg
Vaccinia virus WR [4] = test: Antiviral activity against Vaccinia virus WR ATCC VR-1354 infected through intraperitoneal route in BALB/c mouse assessed as reduction of viral load in liver at 100 mg/kg, po qd measured after 3 days postinfection by RT-PCR analysis relative to control; format: functional, organism-based; set-up: dose 100 mg/kg
Vaccinia virus WR [5] = test: Antiviral activity against Vaccinia virus WR ATCC VR-1354 infected through intraperitoneal route in BALB/c mouse assessed as reduction of viral load in lung at 100 mg/kg, po qd measured after 5 days postinfection by RT-PCR analysis relative to control; format: functional, organism-based; set-up: dose 100 mg/kg
Vaccinia virus WR [6] = test: Antiviral activity against Vaccinia virus WR ATCC VR-1354 infected through intraperitoneal route in BALB/c mouse assessed as reduction of viral load in liver at 100 mg/kg, po qd measured after 5 days postinfection by RT-PCR analysis relative to control; format: functional, organism-based; set-up: dose 100 mg/kg
Vaccinia virus WR [7] = test: Antiviral activity against Vaccinia virus WR ATCC VR-1354 infected through percutaneous route in BALB/c mouse assessed as protection against virus-induced death at 100 mg/kg, po qd for 5 to 14 days; format: functional, organism-based; set-up: dose 100 mg/kg
Vaccinia virus WR [8] = test: Antiviral activity against Vaccinia virus WR ATCC VR-1354 infected through percutaneous route in BALB/c mouse assessed as protection against virus-induced death at 100 mg/kg, po qd for 1 to 3 days; format: functional, organism-based; set-up: dose 100 mg/kg
Vaccinia virus WR [9] = test: Antiviral activity against Vaccinia virus WR ATCC VR-1354 infected through percutaneous route in BALB/c mouse assessed as protection against weight loss at 100 mg/kg, po qd for 5 to 14 days measured on day 8; format: functional
Vaccinia virus WR [10] = test: Antiviral activity against Vaccinia virus WR ATCC VR-1354 infected through percutaneous route in BALB/c mouse assessed as protection against hypothermia at 100 mg/kg, po qd for 1 to 3 days measured on day 6; format: functional, organism-based; set-up: dose 100 mg/kg
Vaccinia virus WR [11] = test: Antiviral activity against Vaccinia virus WR ATCC VR-1354 infected through percutaneous route in BALB/c mouse assessed as inhibition of virus dissemination in spleen at 100 mg/kg, po qd for 3 days by RT-PCR analysis relative to control; format: functional
Vaccinia virus WR [12] = test: Antiviral activity against Vaccinia virus WR ATCC VR-1354 infected through percutaneous route in BALB/c mouse assessed as reduction of viral load in spleen at 100 mg/kg, po qd for 1 day by RT-PCR analysis relative to control; format: functional
Vaccinia virus WR [13] = test: Antiviral activity against Vaccinia virus WR ATCC VR-1354 infected through percutaneous route in BALB/c mouse assessed as reduction of viral load in spleen at 100 mg/kg, po qd for 3 days by RT-PCR analysis relative to control; format: functional
Vaccinia virus WR [14] = test: Antiviral activity against Vaccinia virus WR ATCC VR-1354 infected through percutaneous route in BALB/c mouse assessed as inhibition of virus dissemination in blood at 100 mg/kg, po qd for 1 day by RT-PCR analysis; format: functional, organism-based; set-up: dose 100 mg/kg
Vaccinia virus WR [15] = test: Antiviral activity against Vaccinia virus WR ATCC VR-1354 infected through percutaneous route in BALB/c mouse assessed as inhibition of virus dissemination in liver at 100 mg/kg, po qd for 3 to 14 days by RT-PCR analysis; format: functional, organism-based; set-up: dose 100 mg/kg
Vaccinia virus WR [16] = test: Antiviral activity against Vaccinia virus WR ATCC VR-1354 infected through intravenous route in BALB/c mouse assessed as protection against virus-induced systemic disease symptoms at 100 mg/kg, po qd measured after 9 days postinfection; format: functional, organism-based; set-up: dose 100 mg/kg
Vaccinia virus WR [17] = test: Antiviral activity against Vaccinia virus WR ATCC VR-1354 infected through percutaneous route in BALB/c mouse assessed as protection against virus-induced death at 100 mg/kg, po qd administered 3 days after postinfection measured on day 6; format: functional
Vaccinia virus WR [18] = test: Antiviral activity against Vaccinia virus WR ATCC VR-1354 infected through intraperitoneal route in BALB/c mouse assessed as protection against virus-induced systemic disease symptoms at 100 mg/kg, po qd measured after 9 days postinfection; format: functional, organism-based; set-up: dose 100 mg/kg
Vaccinia virus WR [19] = test: Antiviral activity against Vaccinia virus WR ATCC VR-1354 infected through percutaneous route in BALB/c mouse assessed as protection against virus-induced satellite lesion formation on tails at 100 mg/kg, po qd measured after 6 days postinfection; format: functional, organism-based; set-up: dose 100 mg/kg
Vaccinia virus WR [20] = test: Antiviral activity against Vaccinia virus WR ATCC VR-1354 infected through percutaneous route in BALB/c mouse assessed as protection against virus-induced conjunctivitis in mouse eyes at 100 mg/kg, po qd measured after 6 days postinfection; format: functional, organism-based; set-up: dose 100 mg/kg
Vaccinia virus WR [21] = test: Antiviral activity against Vaccinia virus WR ATCC VR-1354 infected through dermal scarification route in BALB/c mouse assessed as protection against virus-induced satellite lesion formation on tails at 100 mg/kg, po qd measured after 6 days postinfection; format: functional, organism-based; set-up: dose 100 mg/kg
Vaccinia virus WR [22] = test: Antiviral activity against Vaccinia virus WR ATCC VR-1354 infected through intraperitoneal route in BALB/c mouse assessed as protection against virus-induced satellite lesion formation on tails at 100 mg/kg, po qd measured after 6 days postinfection; format: functional, organism-based; set-up: dose 100 mg/kg
Vaccinia virus WR [23] = test: Antiviral activity against Vaccinia virus WR ATCC VR-1354 infected through intraperitoneal route in BALB/c mouse assessed as protection against virus-induced conjunctivitis in mouse eyes at 100 mg/kg, po qd measured after 6 days postinfection; format: functional, organism-based; set-up: dose 100 mg/kg
Vaccinia virus WR [24] = test: Antiviral activity against Vaccinia virus WR ATCC VR-1354 infected through percutaneous route in BALB/c mouse assessed as reduction of viral load in liver at 100 mg/kg, po qd measured after 7 days postinfection by RT-PCR analysis relative to control; format: functional, organism-based; set-up: dose 100 mg/kg
Vaccinia virus WR [25] = test: Antiviral activity against Vaccinia virus WR ATCC VR-1354 infected through percutaneous route in BALB/c mouse assessed as reduction of viral load in blood at 100 mg/kg, po qd measured after 13 days postinfection by RT-PCR analysis relative to control; format: functional, organism-based; set-up: dose 100 mg/kg
Vaccinia virus WR [26] = test: Antiviral activity against Vaccinia virus WR ATCC VR-1354 infected through percutaneous route in BALB/c mouse assessed as reduction of viral load in spleen at 100 mg/kg, po qd measured after 13 days postinfection by RT-PCR analysis relative to control; format: functional, organism-based; set-up: dose 100 mg/kg
Vaccinia virus WR [27] = test: Antiviral activity against Vaccinia virus WR ATCC VR-1354 infected through dermal scarification route in BALB/c mouse assessed as reduction of viral load in blood at 100 mg/kg, po qd measured after 5 days postinfection by RT-PCR analysis relative to control; format: functional

O=C(NN1C(=O)[C@@H]2[C@@H]3C=C[C@@H]([C@H]4C[C@@H]34)[C@@H]2C1=O)c1ccc(C(F)(F)F)cc1 [TECOVIRIMAT]
Activity (Vaccinia virus WR [1]): Active
fold change (FC) (Vaccinia virus WR [2]): 30
Activity (Vaccinia virus WR [3]): inactive
Activity (Vaccinia virus WR [4]): inactive
Activity (Vaccinia virus WR [5]): Active
Activity (Vaccinia virus WR [6]): Active
Activity (Vaccinia virus WR [7]): Active
Activity (Vaccinia virus WR [8]): inactive
Activity (Vaccinia virus WR [9]): >70%
Activity (Vaccinia virus WR [10]): Active
fold change (FC) (Vaccinia virus WR [11]): 85
fold change (FC) (Vaccinia virus WR [12]): 18
fold change (FC) (Vaccinia virus WR [13]): 300
Activity (Vaccinia virus WR [14]): inactive
Activity (Vaccinia virus WR [15]): Active
Activity (Vaccinia virus WR [16]): Active
Activity (Vaccinia virus WR [17]): 100%
Activity (Vaccinia virus WR [18]): Active
Activity (Vaccinia virus WR [19]): Active
Activity (Vaccinia virus WR [20]): Active
Activity (Vaccinia virus WR [21]): Active
Activity (Vaccinia virus WR [22]): Active
Activity (Vaccinia virus WR [23]): Active
Activity (Vaccinia virus WR [24]): Active
Activity (Vaccinia virus WR [25]): Active
Activity (Vaccinia virus WR [26]): Active
fold change (FC) (Vaccinia virus WR [27]): 260
